Data: US10905691B2, “Use of triazolo(4,5-d)pyrimidine derivatives for prevention and treatment of bacterial infection” (Universite de Liege, priority 2016, dated 2021)

Experiments:
[1] = tested on: S. aureus (ATCC 25904) biofilm; assay: Biofilm formation on polystyrene (crystal violet); type: cell-based, Staphylococcus aureus; details: 20 hours
Method: (§1) S. aureus (ATCC 25904) was grown overnight in TSB medium, before being diluted 100 fold in fresh TSB, and incubated aerobically at 37° C. until bacteria culture reached an OD600 of 0.6 (corresponding to approximately 1-3×10^8 CFU/ml). Bacteria cultures were then diluted to 1×10^4 CFU/ml in fresh TSB. 800 μl aliquots of diluted bacteria suspensions were distributed in each well of a 24-well plate. Bacteria were allowed to adhere for 4 hours under static conditions at 37° C. After removing media, wells were rinsed 2 times with PBS to eliminate planktonic bacteria and re-filled with TSB supplemented with 0.5% glucose
Triafluocyl or DMSO as vehicle was then added at desired concentration and plates were incubated at 37° C. for 20 hours. After incubation, wells were washed and stained with 0.5% (w/v) crystal violet for 30 minutes, washed again and the dye was solubilized by adding 20% acetic acid (v/v in water) before reading absorbance at 595 nm.
S. aureus biofilms were formed on polystyrene surface in the presence of increasing concentrations of Triafluocyl or DMSO as vehicle. In FIG. 2, Biofilm mass is presented as percentage of values obtained in the presence of DMSO (*P<0.05; **P<0.01; ***P<0.001, Triafluocyl versus DMSO, n=4).
as §1, with “Staphyloccocus” for “S.”, “or Staphyloccocus epidermidis (ATCC 35984) were” for “was”, “TSB. Aliquots of” for “TSB.”, “μl” for “μl aliquots of”, “removing the” for “removing”, “glucose containing Fluometacyl at desired concentration or DMSO alone (Ctrl). […] The dye was solubilized by adding 20% acetic acid (v/v in water) before reading absorbance at 595 nm. […]” for “glucose”

[2] = tested on: Escherichia coli (ATCC 8739); assay: MBC determination with C12(ω7)Kβ12 (OAK); type: cell-based; details: ATCC8739, in presence of 5 μg/ml OAK, read-out: Minimal Bactericidal Concentration (MBC)
Method: Viable count in the liquid culture is estimated by counting the colony forming units (c.f.u.) on a Luria-Bertani (LB) agar plate—after 24 h incubation at 37° C.—and calculating the c.f.u. per milliliter of the liquid culture (c.f.u./ml).
The Minimal Bactericidal Concentration (MBC) of Triafluocyl in presence of 5 μg/ml OAK against Escherichia coli (ATCC 8739) is equal to 10 μg/ml (FIG. 13B).
The Minimal Bactericidal Concentration (MBC) of Fluometacyl in presence of 5 μg/ml OAK against Escherichia coli (ATCC 8739) is equal to 5 μg/ml (FIG. 14B).

[3] = tested on: Pseudomonas aeruginosa (ATCC 27853); assay: MIC determination with or without C12(ω7)Kβ12 (OAK); type: cell-based; details: for MIC: Pseudomonas aeruginosa, ATCC27853, in presence of 10 μg/ml OAK (C12(ω7)Kβ12)
Method: Determination of Minimal Inhibitory Concentration (MIC) of Triafluocyl (Cayman Chemical, Item No. 15425) in presence of C12(ω7)Kβ12 (provided by Custom synthesis Biomers Germany) against Pseudomonas aeruginosa (ATCC 27853).
A single colony of Pseudomonas aeruginosa grown on a Tryptic Soy agar (TSA) plate is resuspended and cultured in Tryptic Soy Broth (TSB) medium overnight (O/N) in aerobic conditions (37° C. with 190 rpm shaking in New Brunswick Innova 4200 Incubator Shaker). Next day the resulting inoculum is diluted again at 1:100 in Mueller-Hinton broth (MHB) and then incubated in aerobic conditions for 1 h30 (OD=0.08-0.1) to reach an exponential phase in the grown curve. A resulting inoculum corresponding to around 5×10^5 colony forming unit (CFU)/ml, is further incubated in presence or absence of different concentrations (10 and 20 μg/ml) of Triafluocyl in 2% DMSO with or without C12(ω7)Kβ12 for 18 hr in aerobic conditions (37° C. with 190 rpm shaking in New Brunswick Innova 4200 Incubator Shaker). Growth of Pseudomonas aeruginosa in each condition depicted in FIG. 15A is evaluated by reading the OD of each culture at 600 nm (OD600) in a spectrophotometer (Fisher Scientific, cell density meter model 40).
Determination of Minimal Inhibitory Concentration (MIC) of Fluometacyl (prepared according to WO99/0514) in presence of C12(ω7)Kβ12 (provided by Biomers.net Germany) against Pseudomonas aeruginosa (ATCC 27853). The C12(ω7)Kβ12 was synthesized by solid-phase method as described by I. Radzishevsky in Antimicrobial Agents and Chemotherapy, May 2007 (1753-1759) (https://aac.asm.org/content/51/5/1753)
A single colony of Pseudomonas aeruginosa grown on a Tryptic Soy agar (TSA) plate is resuspended and cultured in Tryptic Soy Broth (TSB) medium overnight (O/N) in aerobic conditions (37° C. with 220 rpm shaking in New Brunswick Innova 4200 Incubator Shaker). Next day the resulting inoculum is diluted again at 1:100 in Mueller-Hinton broth (MHB) and then incubated in aerobic conditions for 1 h30 (OD=0.08-0.1) to reach an exponential phase in the grown curve. A resulting inoculum corresponding to around 5×10^5 colony forming unit (CFU)/ml, is further incubated in presence or absence of different concentrations (10 and 20 μg/ml) of Fluometacyl in 2% DMSO with or without C12(ω7)Kβ12 for 18 hr in aerobic conditions (37° C. with 190 rpm shaking in New Brunswick Innova 4200 Incubator Shaker). Growth of Pseudomonas aeruginosa in each condition depicted in FIG. 16A is evaluated by reading the Optical Density of each culture at 600 nm (OD600) in a spectrophotometer (Fisher Scientific, cell density meter model 40).

Row | Compound | S. aureus biofilm formation ([1]; 38 μM, FIG. 10A) | MBC [2] [µg/mL] | MIC [3] [µg/mL] | inhibition of P. aeruginosa growth ([3]; taken alone at a concentration of 20 μg/ml) | S. aureus biofilm formation ([1]; 10 μg/ml, polystyrene surface) | S. aureus biofilm formation ([1]; all concentrations tested, versus DMSO) | inhibition of P. aeruginosa growth ([3]; taken alone at a concentration of 10 μg/ml)
1 | CCCSc1nc(N[C@@H]2C[C@H]2c2ccc(F)c(F)c2)c2nnn([C@@H]3C[C@H](O)[C@@H](O)[C@H]3O)c2n1 [Fluometacyl, (1S,2R,3S,4R)-4-[7-[[(1R,2S)-2-(3,4-Difluorophenyl)cyclopropyl]amino]-5-(propylthio)-3H-1,2,3-triazolo[4,5-d]pyrimidin-3-yl]-1,2,3-cyclopentanetriol] | could not form any biofilm | 5 | 20 | unable to inhibit P. aeruginosa growth |  |  | 
2 | CCCSc1nc(N[C@@H]2C[C@H]2c2ccc(F)c(F)c2)c2nnn([C@@H]3C[C@H](OCCO)[C@@H](O)[C@H]3O)c2n1 [Triafluocyl, (1S,2S,3R,5S)-3-[7-[(1R,2S)-2-(3,4-difluorophenyl)cyclopropylamino]-5-(propylthio)-3H-[1,2,3]-triazolo[4,5-d]pyrimidin-3-yl]-5-(2-hydroxyethoxy)-1,2-cyclopentanediol] |  | 10 | 10 |  | no biofilm could form | significantly reduces | unable to inhibit P. aeruginosa growth
